The subject of one assay is MCF-7. Description: MTT assay, 6-cell line test, breast MCF-7. The format is cell-based, human. The following applies: MCF-7 cells. Background: Tetrazolium dyes change colour on reduction, which living cells bring about.
For another assay, the system named is PACA-2. Put plainly: MTT assay, 6-cell line test, pancreatic PACA-2. The format is cell-based, human. The following applies: PACA-2 cells.
The next assay relates to PC-3. Description: MTT assay, 6-cell line test, prostate PC-3. Format: cell-based, human. Conditions: PC-3 cells.
A further assay has as its system HT-29. Put plainly: MTT assay, 6-cell line test, colon HT-29. Format: cell-based, human. The following applies: HT-29 cells.
Another assay has as its system A-549. Put plainly: MTT assay, 6-cell line test, lung A-549. The format is cell-based, human. The following applies: A-549 cells.
For a further assay, the system named is A-478. Description: MTT assay, 6-cell line test, kidney A-478. Format: cell-based, human. The following applies: A-478 cells.
Assay [1] deals with DMBA-induced mammary tumors. Description: DMBA-induced mammary carcinogenesis in rats. The format is in vivo, Female Sprague-Dawley rats. Conditions: for Rat with Tumors, percentage in parentheses (reduction versus Control Diet + DMBA, not explained) / Tumors Per Rat, percentage in parentheses (reduction versus Control Diet + DMBA, not explained): Sulforaphane 50 mg/kg by gavage + DMBA; for Rat with Tumors (%) / Tumors Per Rat: Sulforaphane 50 mg/kg by gavage once a day, days 46-51 of age, + DMBA. As to the method: Sulforaphane was orally administered by gavage (50 mg / kg body weight in 0.1 ml corn oil) to rats once a day at 46th, 47th, 48th, 49th, 50th and 51st days of their age. […] Palpable mammary tumors were counted every week after DMBA administration.

Assay [2] deals with carrageenan-induced pedal edema. The following applies: rats, cited from earlier work.

SMILES strings stand for the structures. Where a name gives a salt, the structure may show the parent alone.

Experimental for A-478: (§1) Cells were planted in 96 well flat bottom plates with low evaporation lids. Three cell lines per plate were seeded in 0.2 ml medium per well. Each cell line was planted at the optimum concentration for its particular growth rate: H-29 and A-549, 5000 c/ml, MCF-7, 15000 c/well, KB and similar cells, 2500 c/ml, P388 and similar cells, 15000 c/ml. Products were tested at various dilutions (at least ten) to determine the ED 50.
Experimental for A-549: as §1
Experimental for HT-29: as §1
Experimental for MCF-7: as §1
Experimental for PACA-2: as §1
Experimental for PC-3: as §1

With `OC[C@H]1O[C@@H](Oc2cc(O)cc(/C=C/c3ccc(O)cc3)c2)[C@H](O)[C@@H](O)[C@@H]1O` (relative stereo) [Fifth Product, 90% Piceid, 3,4′5-trans-trihydroxystilbene-3-β-mono-D-glucoside], the “Breast MCF-7 ED 50” value with MCF-7 amounted to 100 µg/mL. Also, the “Pancreatic PACA-2 ED 50” value in the assay on PACA-2 is 40.98 µg/mL. Further, the “Prostrate PC-3 ED 50” value in the assay on PC-3 was 80.58 µg/mL. In addition, in the assay on HT-29, the “Colon HT-29 ED 50” value was 79.20 µg/mL. Further, the “Lung A-549 ED 50” value in the assay on A-549 stood at 35.77 µg/mL. Moreover, the “Kidney A-478 ED 50” value with A-478 is 34.95 µg/mL.

Regarding `Oc1ccc(/C=C/c2cc(O)cc(O)c2)cc1` [3,4′,5-trihydroxy-trans-stilbene], the “Breast MCF-7 ED 50” value with MCF-7 came to 4.23 µg/mL. In the assay on PACA-2, the “Pancreatic PACA-2 ED 50” value was found to be 3.55 µg/mL. In addition, the “Prostrate PC-3 ED 50” value in the assay on PC-3 came out at 100 µg/mL. The “Colon HT-29 ED 50” value with HT-29 stood at 1.66 µg/mL. Moreover, the “Lung A-549 ED 50” value in the assay on A-549 worked out at 0.326 µg/mL. Also, the “Kidney A-478 ED 50” value in the assay with A-478 was found to be 0.74 µg/mL.

Regarding `COc1cccc2c1C(=O)c1c(O)c3c(c(O)c1C2=O)C[C@@](O)(C(=O)CO)C[C@@H]3O[C@H]1C[C@H](N)[C@H](O)[C@H](C)O1` [Doxorubicin HCL], the “Breast MCF-7 ED 50” value in the assay with MCF-7 was 0.107 µg/mL. In the assay with PACA-2, the “Pancreatic PACA-2 ED 50” value is 0.00522 µg/mL. For the same molecule, the “Prostrate PC-3 ED 50” value in the assay on PC-3 is 0.0281 µg/mL. Further, in the assay on HT-29, the “Colon HT-29 ED 50” value was determined as 0.022 µg/mL. The “Lung A-549 ED 50” value with A-549 worked out at 0.00316 µg/mL. Moreover, the “Kidney A-478 ED 50” value in the assay on A-478 was determined as 0.00359 µg/mL.

As for `C[S+]([O-])CCCCN=C=S` (stereo not drawn) [Sulforaphane], in assay [1] (9 weeks after DMBA), the “Rat with Tumors, percentage in parentheses (reduction versus Control Diet + DMBA, not explained)” value is “(100%)”; the “Tumors Per Rat, percentage in parentheses (reduction versus Control Diet + DMBA, not explained)” value is “(100%)”; the “Rat with Tumors (%)” value was 0%; the “Tumors Per Rat” value is on record as 0. Besides, in assay [1] (14 weeks after DMBA), the “Rat with Tumors, percentage in parentheses (reduction versus Control Diet + DMBA, not explained)” value is “(32%)”; the “Tumors Per Rat, percentage in parentheses (reduction versus Control Diet + DMBA, not explained)” value is given as “(43%)”; the “Rat with Tumors (%)” value is 13%; the “Tumors Per Rat” value amounted to 0.13 ± 0.08. In addition, in assay [1] (22 weeks after DMBA), the “Rat with Tumors, percentage in parentheses (reduction versus Control Diet + DMBA, not explained)” value is reported as “(38%)”; the “Tumors Per Rat, percentage in parentheses (reduction versus Control Diet + DMBA, not explained)” value was “(10%)”; the “Rat with Tumors (%)” value is 31%; the “Tumors Per Rat” value worked out at 0.36 ± 0.33.

Regarding `Oc1ccc(C=Cc2cc(O)cc(O)c2)cc1` [resveratrol, 3,4′,5-trihydroxystilbene], in assay [2] (acute phase (3 to 24 hours)), the “Pedal edema, acute phase” value is given as “significantly reduced pedal edema”. Also, the “Pedal edema, chronic phase” value in assay [2] (chronic phase (24 to 144 hours)) is “significantly reduced pedal edema”. The “Edema-suppressing activity compared with reference drugs” value in assay [2] (versus phenylbutazone and indomethacin) is “greater than that of phenylbutazone and similar to that of indomethacin”.

Values taken from US6361815B1, “Products comprising trihydroxystilbenes and derivatives thereof and methods for their manufacture and use” (Pure World Botanicals, Inc., priority 1998, dated 2002).
